{
  "source": "patent US20080038402A1",
  "about": "“RUMINANT ANIMAL FEED FORMULATIONS AND METHODS OF FORMULATING SAME” (priority 2006, published 2008)",
  "key": {"rumen fluid [1]": {"system": "rumen fluid", "assay": "Redox, pH and dry matter disappearance of rumen fluid incubated 6 hours at 39° C.", "format": "cell-based, cows", "conditions": "by treatment", "procedure": "(§1) Rumen fluid was sampled via the fistula using the Geishawer probe according to standard methodology, with sampling done 2 hours pre-feeding, and again at 2, 4, and 6 hours post-feeding at day 19, 20 or 21 of a 21 day feeding period. Fluid was strained through 4 ply cheesecloth into duplicate containers treated with phosphoric acid (preservative). At the end of each feeding period, rumen fluid from the 2 hours pre-feeding sample was placed into a pre-warmed half litre vacuum flask and forwarded for in vitro studies, described below. The vacuum flask was filled and covered immediately after sampling.\n(§2) Temperature, pH, redox on strained and unstrained rumen fluid were measured to assess viability and consistency. The rumen fluid was incubated for 6 hours at 39° C. with (1) control 0.13 g soybean meal (SBM) and 0.13 g TMR food sample; and (2) test 0.13 g Top Soy and 0.13 g TMR. Samples were analyzed for ammonia concentration and substrate disappearance."}, "rumen fluid [2]": {"system": "rumen fluid", "assay": "Rumen fluid pH and volatile fatty acids in rumen-fistulated cows (4x4 latin square)", "format": "in vivo", "procedure": "(§3) The use of the RAFA, were compared with an animal control. A four by four latin square design was used, employing four rumen-fistulated cows. Cows were fed a standard TMR (total mixed ration) for at least 7 days prior to the start of the experiment, and were assigned to one of the following four 21 day ration sequences: ABCD, BCDA, CDAB, and DABC, where A, B, C, and D are as follows: (A) control (standard TMR); (B) Monensin (control diet plus 200 mg/kg monensin); (C) Surfactant (control diet plus 316 mg/kg Surfactant); (D) Essential Oil (control diet plus 5 mg/kg Essential Oil).\nas §1\nRumen fluid pH and volatile fatty acids (VEA) were measured."}, "rumen fluid [3]": {"system": "rumen fluid", "assay": "Example 3a in vitro rumen fluid incubation (gas, DMD, VFA): monensin, soy oil, Ca salts of soy oil", "format": "cell-based", "text": "One objective of this experiment was to compare these lipid sources (soy oil and calcium salts of soy oil) with each other and in the presence and absence of monensin sodium.\nProduction of iso-valeric acid and n-valeric acid was also used to estimate the level of protein (specifically branched chain amino acid) degradation in the rumen (Benchaar et al 1998), and results of VFA production can thus be used as an adjustment factor to express the benefit of such additives on protein degradability.\n(§4) The measurement of rumen gas production over time is a well described technique (Minson 1998) and is subject to small variation between laboratories. In this laboratory, the substrate employed in all experiments was based on a dried TMR sample. Data from gas measurement observations using two replicates (true volume corrected by subtraction of corresponding negative control values at similar time point) was analyzed by ANOVA with time, treatment, and replicate as main effects in the model. The interaction of time by treatment by replicate was used as the error term. Dry matter digestibility was analyzed by ANOVA with treatment as the main effect in the model and treatment by replicate interaction as the error term. VFA parameters were analyzed by ANOVA with treatment as the main effect in the model and treatment by replicate interaction as the error term.\nStatistical summaries are given in Tables 10-12 below for Mean Gas Production (0 to 6 hours incubation), DMD (Dry Matter Digestibility) %, VFA Tot. (Volatile Fatty Acids total moles), Acetic, Propionic, Butyric, Isobutyric, Isovaleric, and n-Valeric acids (molar percentages).\nThis trial further validates the adjustments applied to KB when monensin and soy oil are included in the diet either separately or in combination. Adjustment factors are calculated as the ratio of rumen active feed additive valerate production (i-valeric acid plus n-valeric acid) in the combination treatment to that of the control (TMR with CaSalts of SoyOil). Using this approach, KB can be adjusted by the following factors: • Monensin=6.36/7.20=0.88 • SoyOil=6.95/7.20=0.97 • Monensin+SoyOil=5.40/7.20=0.75"}, "rumen fluid [4]": {"system": "rumen fluid", "assay": "Example 3c in vitro rumen fluid incubation (gas, DMD, VFA): monensin, organic acid, yeast culture, fermentation solubles", "format": "cell-based", "procedure": "as §4, with “Data from gas measurement observations using two replicates (true volume corrected by subtraction of corresponding negative control values at similar time point) was analyzed by ANOVA with time, treatment, and replicate as main effects in the model.” left out\nThe protocol used in Example 3a was also used in 3c to investigate the additive effects of other RAFA\nStatistical summaries were tabulated in Tables 18-20 below for Mean Gas Production (0 to 6 hours incubation), DMD (Dry Matter Digestibility) %, VFA Tot. (Volatile Fatty Acids total moles), Acetic, Propionic, I-Butyric, n-Butyric, Isovaleric, and n-Valeric acids (molar percentages)."}, "rumen fluid [5]": {"system": "rumen fluid", "assay": "Rumen gas production in vitro (rumen fluid added to buffer and food source, 0 to 6 hours)", "format": "cell-based", "conditions": "by treatment of donor cows", "procedure": "as §1\nRumen fluid samples were also added to buffer and food source, and gas production was recorded from time 0 to 6 hours."}, "rumen-fistulated cows": {"system": "rumen-fistulated cows", "assay": "Daily milk production and feed consumption", "format": "in vivo", "conditions": "by treatment", "procedure": "as §3"}, "rumen fluid [6]": {"system": "rumen fluid", "assay": "Rumen ammonia level after incubation, by treatment and soy process", "format": "cell-based, cows", "conditions": "by treatment", "procedure": "as §2\nThis trial further validates the adjustments applied to KB in the method when monensin sodium, Surfactant or Essential Oil are included in the diet. Adjustment factors for each RAFA were calculated as the ratio of additive ammonia production to that of the control and applied to the KB during formulation."}, "rumen fluid [7]": {"system": "rumen fluid", "assay": "Concentration and breakdown of VFA in vitro in incubated rumen fluid", "format": "cell-based, cows", "conditions": "by treatment", "procedure": "as §2\nConcentration and breakdown of volatile fatty acids (VFA) in vitro were tabulated in Table 7, below, as results of statistical analysis across all timepoints."}},
  "note": "Marks after values point to notes of the source that are not given here.",
  "data": [
    {"substance": "monensin sodium", "values": [
      {"measurement": "pH at T0", "setting": "rumen fluid [1]", "result": 6.31},
      {"measurement": "DMD %", "setting": "rumen fluid [1]; 6 hours at 39° C.", "result": 40.43, "unit": "%"},
      {"measurement": "Redox (seconds) at T0", "setting": "rumen fluid [1]; cell viability", "result": 30, "unit": "s"},
      {"measurement": "Rumen pH", "setting": "rumen fluid [2]; by treatment across all time points, 21 day ration, monensin 200 mg/kg, Surfactant 316 mg/kg, Essential Oil 5 mg/kg diet", "result": 6.07},
      {"measurement": "Acetic (acetic acid)", "setting": "rumen fluid [2]; rumen fluid by treatment", "result": "57.90^b molar percentage"},
      {"measurement": "Prop (propionic acid)", "setting": "rumen fluid [2]; rumen fluid by treatment", "result": "24.91^c molar percentage"},
      {"measurement": "VFA total", "setting": "rumen fluid [2]; rumen fluid by treatment", "result": "102.64^b mmol/L"},
      {"measurement": "i-But (i-butyric acid)", "setting": "rumen fluid [2]; rumen fluid by treatment", "result": "0.95^b molar percentage"},
      {"measurement": "i-Val (i-valeric acid)", "setting": "rumen fluid [2]; rumen fluid by treatment", "result": "1.08^c molar percentage"},
      {"measurement": "n-But (n-butyric acid)", "setting": "rumen fluid [2]; rumen fluid by treatment", "result": 12.33, "unit": "molar percentage"},
      {"measurement": "n-Val (n-valeric acid)", "setting": "rumen fluid [2]; rumen fluid by treatment", "result": "2.82^b molar percentage"},
      {"measurement": "Molar yields of propionate", "setting": "rumen fluid [2]; rumen fluid by treatment, control 24.81", "result": 25.56},
      {"measurement": "Acetic", "setting": "rumen fluid [3]; VFA", "result": "60.97^ab molar %"},
      {"measurement": "Prop", "setting": "rumen fluid [3]; VFA", "result": "20.82^b molar %"},
      {"measurement": "i-But", "setting": "rumen fluid [3]; VFA", "result": "1.06^c molar %"},
      {"measurement": "i-Val", "setting": "rumen fluid [3]; VFA", "result": "4.65^a molar %"},
      {"measurement": "n-But", "setting": "rumen fluid [3]; VFA", "result": 10.79, "unit": "molar %"},
      {"measurement": "n-Val", "setting": "rumen fluid [3]; VFA", "result": 1.71, "unit": "molar %"},
      {"measurement": "Mean Gas ml 0–6 hr", "setting": "rumen fluid [3]; calculated as increase over Control, 6.6 mg/L monensin, 6 g/L lipid", "result": "5.31^e ml"},
      {"measurement": "DMD %", "setting": "rumen fluid [3]; dry matter disappearance", "result": "43.48^a %"},
      {"measurement": "VFA, moles", "setting": "rumen fluid [3]; total VFA production", "result": "52.51^a moles"},
      {"measurement": "DMD %", "setting": "rumen fluid [4]; Dry Matter Digestibility", "result": "19.4^ad %"},
      {"measurement": "Acetic", "setting": "rumen fluid [4]; VFA", "result": 60.5, "unit": "mmol/100 mmol"},
      {"measurement": "Prop", "setting": "rumen fluid [4]; VFA", "result": "22.4^ab mmol/100 mmol"},
      {"measurement": "i-But", "setting": "rumen fluid [4]; VFA", "result": "4.1^bc mmol/100 mmol"},
      {"measurement": "i-Val", "setting": "rumen fluid [4]; VFA", "result": "1.5^abd mmol/100 mmol"},
      {"measurement": "n-But", "setting": "rumen fluid [4]; VFA", "result": 10.2, "unit": "mmol/100 mmol"},
      {"measurement": "n-Val", "setting": "rumen fluid [4]; VFA", "result": "1.2^abc mmol/100 mmol"},
      {"measurement": "Mean Gas ml 0–6 hr", "setting": "rumen fluid [4]; calculated as increase over negative Control", "result": "−0.9^b ml"},
      {"measurement": "VFA total", "setting": "rumen fluid [4]; total yields", "result": "41.6^b mmol/L"},
      {"measurement": "GAS", "setting": "rumen fluid [5]", "result": "10.39^c ml"},
      {"measurement": "DMI (dry matter intake)", "setting": "rumen-fistulated cows", "result": "24.7^ab kg/day"},
      {"measurement": "Milk", "setting": "rumen-fistulated cows", "result": 43.7, "unit": "kg/day"},
      {"measurement": "Milk/kg DMI", "setting": "rumen-fistulated cows", "result": 1.77},
      {"measurement": "Baseline-corrected Ammonia post incubation", "setting": "rumen fluid [6]", "result": "27.49^a mg/L"},
      {"measurement": "Baseline-corrected percent Ammonia reduction with Top Soy relative to SBM", "setting": "rumen fluid [6]", "result": 45.26, "unit": "%"},
      {"measurement": "Acetic", "setting": "rumen fluid [7]", "result": "58.62^a molar percentage"},
      {"measurement": "Prop", "setting": "rumen fluid [7]", "result": "25.51^a molar percentage"},
      {"measurement": "VFA total", "setting": "rumen fluid [7]", "result": "75.03^c mmol/L"},
      {"measurement": "i-But", "setting": "rumen fluid [7]", "result": 1.18, "unit": "molar percentage"},
      {"measurement": "i-Val", "setting": "rumen fluid [7]", "result": "1.44^b molar percentage"},
      {"measurement": "n-But", "setting": "rumen fluid [7]", "result": "12.09^bc molar percentage"},
      {"measurement": "n-Val", "setting": "rumen fluid [7]", "result": "1.16^c molar percentage"}
    ]}
  ]
}
